Experimental data as given in ChEMBL document CHEMBL6087464, “Design, Synthesis, and Biological Evaluation of 3,4-Dihydroisoquinolin-1(2H)-one Derivatives as Protein Arginine Methyltransferase 5 Inhibitors for the Treatment of Non-Hodgkin's Lymphoma” (J Med Chem, 2025).
pIC50, pKd: −log10 of the molar value. Activity calls are given as the source filed them. No cut-off for these calls is given here.

Assays:
Z-138 = assay: Antiproliferative activity against human Z138 cells measured after 7 days by CellTiter-Glo luminescence cell viability assay; assay type: functional, cell-based; conditions: Z-138, 168 h
PRMT5/MEP50 complex [1] = molecular target: T1, PRMT5/MEP50 complex (Homo sapiens, UniProt O14744+Q9BQA1); assay: Binding affinity to PRMT5/MEP50 (unknown origin) at 5 uM by SPR analysis; assay type: protein-complex assay
T1 sequence (O14744 whole entry): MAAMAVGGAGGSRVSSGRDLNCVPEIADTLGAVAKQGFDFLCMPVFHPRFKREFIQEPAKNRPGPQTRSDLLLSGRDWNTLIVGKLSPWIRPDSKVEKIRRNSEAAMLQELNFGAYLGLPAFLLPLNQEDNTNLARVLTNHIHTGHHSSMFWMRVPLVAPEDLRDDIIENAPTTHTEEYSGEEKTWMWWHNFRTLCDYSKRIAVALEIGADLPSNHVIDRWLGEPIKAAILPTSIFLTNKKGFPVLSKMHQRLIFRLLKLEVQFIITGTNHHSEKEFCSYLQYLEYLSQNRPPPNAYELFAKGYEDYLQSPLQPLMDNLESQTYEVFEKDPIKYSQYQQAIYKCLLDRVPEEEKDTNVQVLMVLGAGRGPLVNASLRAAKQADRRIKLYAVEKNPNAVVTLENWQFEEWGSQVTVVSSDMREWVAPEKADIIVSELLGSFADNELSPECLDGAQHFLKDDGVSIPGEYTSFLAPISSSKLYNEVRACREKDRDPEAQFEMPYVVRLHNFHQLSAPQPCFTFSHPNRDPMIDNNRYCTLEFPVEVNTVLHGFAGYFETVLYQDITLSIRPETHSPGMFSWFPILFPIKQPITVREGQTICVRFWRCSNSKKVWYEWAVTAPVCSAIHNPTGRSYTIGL
T1 sequence (Q9BQA1 whole entry): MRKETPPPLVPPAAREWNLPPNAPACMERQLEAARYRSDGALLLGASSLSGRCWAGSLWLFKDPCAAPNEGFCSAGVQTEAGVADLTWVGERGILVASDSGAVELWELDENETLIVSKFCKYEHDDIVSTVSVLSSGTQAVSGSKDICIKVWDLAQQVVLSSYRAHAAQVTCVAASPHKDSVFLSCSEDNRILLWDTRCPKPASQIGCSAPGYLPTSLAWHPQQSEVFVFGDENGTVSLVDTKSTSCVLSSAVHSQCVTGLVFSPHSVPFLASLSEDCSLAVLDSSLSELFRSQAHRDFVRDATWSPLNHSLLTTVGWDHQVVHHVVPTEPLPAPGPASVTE

PRMT5/MEP50 complex [2] = molecular target: PRMT5/MEP50 complex (Homo sapiens, UniProt O14744); assay: Binding affinity to PRMT5/MEP50 (unknown origin) assessed as dissociation constant by SPR analysis; assay type: protein-complex assay
Sequence of PRMT5/MEP50 complex (Homo sapiens, UniProt O14744) (O14744 whole entry): as the sequence (O14744 whole entry) above
Sequence of PRMT5/MEP50 complex (Homo sapiens, UniProt O14744) (Q9BQA1 whole entry, further chain): as the sequence (Q9BQA1 whole entry) above

A549 = assay: Antiproliferative activity against human A549 cells measured after 4 to 5 days by CCK-8 assay; assay type: functional, cell-based
T47D = assay: Antiproliferative activity against human T47D cells measured after 4 to 5 days by CCK-8 assay; assay type: functional, cell-based
Ishikawa = assay: Antiproliferative activity against human Ishikawa cells measured after 4 to 5 days by CCK-8 assay; assay type: functional, cell-based
A-427 = assay: Antiproliferative activity against human A-427 cells measured after 4 to 5 days by CCK-8 assay; assay type: functional, cell-based
NCI-H1975 = assay: Antiproliferative activity against human NCI-H1975 cells measured after 4 to 5 days by CCK-8 assay; assay type: functional, cell-based
[3] = molecular target: Protein arginine N-methyltransferase 5 (Homo sapiens) (UniProt O14744); assay: Inhibition of PRMT5 in human Z138 cells assessed as decrease in symmetric dimethyl arginine level incubated for 48 hrs by Western blot analysis; assay type: cell-based; conditions: dose 0.005-5 µM
Sequence of Protein arginine N-methyltransferase 5 (Homo sapiens) (O14744 whole entry): as the sequence (O14744 whole entry) above

[4] = Toxicity in female SCID.BG […] mouse xenografted with human Z138 cells assessed as body weight loss at 12.5 to 50 mg/kg, po administered twice a day for 21 days; assay type: organism-based; conditions: in vivo, 504 h, dose 12.5-50 mg/kg, time 21 day
[5] = molecular target: Protein arginine N-methyltransferase 5 (Homo sapiens) (UniProt O14744); assay: In vivo inhibition of PRMT5 in female SCID.BG nude mouse xenografted with human Z138 cells assessed as decrease in SmD3me2s level at 12.5 to 50 mg/kg, po administered twice a day for 21 days by Western blotting analysis; assay type: functional, organism-based; conditions: dose 12.5-50 mg/kg, time 21.0 day
[6] = Toxicity in Sprague-Dawley rat assessed as body weight loss at 31.25 to 125 mg/kg, po administered once a day for 14 days; assay type: organism-based; conditions: in vivo, 336 h, dose 31.25-125 mg/kg, time 14 day
[7] = Toxicity in Sprague-Dawley rat assessed as morphological changes in stomach at 31.25 to 125 mg/kg, po administered once a day for 14 days by H and E staining based analysis; assay type: organism-based; conditions: in vivo, 336 h, dose 31.25-125 mg/kg, time 14 day
[8] = Toxicity in Sprague-Dawley rat assessed as morphological changes in bone marrow at 31.25 to 125 mg/kg, po administered once a day for 14 days by H and E staining based analysis; assay type: organism-based; conditions: in vivo, 336 h, dose 31.25-125 mg/kg, time 14 day
[9] = Toxicity in Sprague-Dawley rat assessed as morphological changes in caecum at 31.25 to 125 mg/kg, po administered once a day for 14 days by H and E staining based analysis; assay type: organism-based; conditions: in vivo, 336 h, dose 31.25-125 mg/kg, time 14 day
[10] = Toxicity in Sprague-Dawley rat assessed as structural changes in stomach at 31.25 to 125 mg/kg, po administered once a day for 14 days by H and E staining based analysis; assay type: organism-based; conditions: in vivo, 336 h, dose 31.25-125 mg/kg, time 14 day
[11] = Toxicity in Sprague-Dawley rat assessed as structural changes in bone marrow at 31.25 to 125 mg/kg, po administered once a day for 14 days by H and E staining based analysis; assay type: organism-based; conditions: in vivo, 336 h, dose 31.25-125 mg/kg, time 14 day
[12] = Metabolic stability in mouse liver microsomes assessed as half-life at 1 uM measured upto 240 mins; assay type: ADME, Microsome
[13] = Metabolic stability in human liver microsomes assessed as half-life at 1 uM measured upto 240 mins; assay type: ADME, Microsome
[14] = Metabolic stability in dog liver microsomes assessed as half-life at 1 uM measured upto 240 mins; assay type: ADME, Canis lupus familiaris, Microsome
[15] = Protein binding in Sprague-Dawley rat plasma; assay type: ADME, cell-free; conditions: read-out: PPB (converted)
[16] = Protein binding in human plasma; assay type: ADME, cell-free; conditions: read-out: PPB (converted)
Cytochrome P450 1A2 = Cytochrome P450 1A2 (Homo sapiens, UniProt P05177); assay: Inhibition of CYP1A2 (unknown origin); assay type: ADME
Sequence of Cytochrome P450 1A2 (P05177 whole entry): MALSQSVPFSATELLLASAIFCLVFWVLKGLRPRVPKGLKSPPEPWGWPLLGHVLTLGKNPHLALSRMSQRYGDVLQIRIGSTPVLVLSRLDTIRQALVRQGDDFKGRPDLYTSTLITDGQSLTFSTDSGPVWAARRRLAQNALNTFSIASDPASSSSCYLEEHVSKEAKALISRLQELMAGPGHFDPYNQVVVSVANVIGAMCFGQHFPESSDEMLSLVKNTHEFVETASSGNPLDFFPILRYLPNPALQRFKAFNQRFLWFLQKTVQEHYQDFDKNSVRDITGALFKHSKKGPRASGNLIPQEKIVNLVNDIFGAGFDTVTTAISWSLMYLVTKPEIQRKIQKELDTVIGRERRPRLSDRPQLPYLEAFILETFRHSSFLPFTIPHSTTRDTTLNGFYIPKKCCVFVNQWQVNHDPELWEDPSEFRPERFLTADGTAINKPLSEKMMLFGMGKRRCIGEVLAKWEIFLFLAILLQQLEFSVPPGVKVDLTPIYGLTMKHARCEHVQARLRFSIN

Cytochrome P450 3A4 [17] = molecular target: T2, Cytochrome P450 3A4 (Homo sapiens, UniProt P08684); assay: Inhibition of CYP3A4 (unknown origin) using midazolam as substrate; assay type: ADME
T2 sequence (P08684 whole entry): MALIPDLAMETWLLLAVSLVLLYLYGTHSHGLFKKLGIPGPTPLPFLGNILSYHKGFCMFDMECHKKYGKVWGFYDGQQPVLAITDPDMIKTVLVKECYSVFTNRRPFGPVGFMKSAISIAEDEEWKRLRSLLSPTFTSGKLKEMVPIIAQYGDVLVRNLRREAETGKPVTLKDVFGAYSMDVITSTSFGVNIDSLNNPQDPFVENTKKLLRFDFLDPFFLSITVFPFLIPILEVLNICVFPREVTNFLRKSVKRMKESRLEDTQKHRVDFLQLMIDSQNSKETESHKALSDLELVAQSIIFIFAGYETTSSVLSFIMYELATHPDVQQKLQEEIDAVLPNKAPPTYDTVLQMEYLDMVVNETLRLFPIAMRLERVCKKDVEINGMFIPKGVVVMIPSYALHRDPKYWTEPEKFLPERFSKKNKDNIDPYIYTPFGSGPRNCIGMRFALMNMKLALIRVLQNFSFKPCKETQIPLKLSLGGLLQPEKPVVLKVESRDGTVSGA

Cytochrome P450 3A4 [18] = molecular target: T2, Cytochrome P450 3A4; assay: Inhibition of CYP3A4 (unknown origin) using testosterone as substrate; assay type: ADME
PRMT5/MEP50 complex [19] = molecular target: T1, PRMT5/MEP50 complex; assay: Binding affinity to PRMT5/MEP50 (unknown origin) assessed as dissociation rate constant (koff) by SPR analysis

`CC(=O)N1CCC(Nc2cc(C(=O)NC[C@H](O)CN3CCc4ccccc4C3)ncn2)CC1` [PEMRAMETOSTAT] showed a pIC50 (Z-138) of 7.59.
In the case of `CC(=O)N1CC2(CC(Nc3cc4c(cn3)C3(CC3)CN(C[C@H](O)CN3CCc5ccccc5C3)C4=O)C2)C1`, the Activity (PRMT5/MEP50 complex [1]) was “Active”, the pKd (PRMT5/MEP50 complex [2]) was 6.98 and the pIC50 (A549) was 7.86. It also gave a pIC50 (T47D) of 8.65, a pIC50 (Ishikawa) of 8.26 and a pIC50 (A-427) of 7.14. The pIC50 (NCI-H1975) was 9.02, the inhibition [3] was “Dose-dependent-effect” and the Activity [4] was “Non-toxic”. The inhibition [5] was “Active; More Potent Than Gsk3326595”, the Activity [6] was “Non-toxic” and the Activity [7] was “Non-toxic”. For the same compound, the Activity [8] was “Non-toxic”, the Activity [9] was “Non-toxic” and the Activity [10] was “Non-toxic”. The Activity [11] was “Non-toxic”, the half-life at 1 µM [12] was 83.6 min and the half-life at 1 µM [13] was 17.5 min. For the same compound, the half-life at 1 µM [14] was 152 min, the fraction unbound [15] was 0.04 and the fraction unbound [16] was 0.106. The pIC50 (Cytochrome P450 1A2) was less than 4.30, the pIC50 (Cytochrome P450 3A4 [17]) was less than 4.30 and the pIC50 (Cytochrome P450 3A4 [18]) was less than 4.30. For the same compound, the koff (PRMT5/MEP50 complex [19]) was 3.62 10^-2/s.
